pIC50: −log10 of the molar value.
Tests used:
[1] = test system: RAW264.7; experiment: Antiinflammatory activity in mouse RAW264.7 cells assessed as inhibition of LPS-induced NO production preincubated for 3 hrs followed by LPS-stimulation and measured after 24 hrs by Griess reagent based assay; format: functional, cell-based
[2] = test system: RAW264.7; experiment: Cytotoxicity against mouse RAW264.7 cells assessed as cell viability measured after 24 hrs by CCK8 assay; format: cell-based; details: raw264.7, 24 h
[3] = test system: RAW264.7; experiment: Antiinflammatory activity in mouse RAW264.7 cells assessed as inhibition of LPS-induced iNOSs protein expression preincubated for 3 hrs followed by LPS-stimulation and measured after 24 hrs by Western blot analysis; format: functional, cell-based; details: dose 3-30 µM
[4] = test system: RAW264.7; experiment: Antiinflammatory activity in mouse RAW264.7 cells assessed as inhibition of LPS-induced iNOS enzyme activity preincubated for 3 hrs followed by LPS-stimulation and measured after 24 hrs by fluorescence plate reader assay; format: functional, cell-based; details: dose 3-30 µM

SMILES | pIC50 [1] | Activity [2] | inhibition [3] | inhibition [4]
CC(=O)O[C@H]1CC[C@]2(C)[C@H]3C[C@H]4OC(=O)C=C4[C@H](C)[C@@H]3CC[C@H]2C1(C)C | 4.30 | Non-Toxic | – | –
C[C@H]1C2=CC(=O)O[C@]2(O)C[C@H]2[C@H]1C[C@@H](O)[C@H]1C(C)(C)CCC[C@]21C | 4.67 | Non-Toxic | – | –
CC(=O)O[C@@H]1CC(C)(C)[C@@H]2CC[C@H]3[C@@H](C)C4=CC(=O)O[C@@H]4C[C@@H]3[C@@]2(C)C1 | < 4.30 | Non-Toxic | – | –
C[C@H]1C2=CC(=O)OC2=C[C@H]2[C@H]1C[C@@H](O)[C@H]1[C@](C)(CO)CCC[C@]21C | 4.34 | Non-Toxic | – | –
C[C@H]1C2=CC(=O)OC2=C[C@H]2[C@H]1C[C@@H](O)[C@H]1C(C)(C)CCC[C@]21C | 4.46 | Non-Toxic | – | –
CC(=O)O[C@@H]1C[C@H]2[C@@H](C)C3=CC(=O)O[C@@H]3C[C@@H]2[C@@]2(C)CCCC(C)(C)[C@H]12 | < 4.30 | Non-Toxic | – | –
CO[C@@]12C[C@H]3[C@@H](C[C@@H](OC(C)=O)[C@H]4C(C)(C)CCC[C@]34C)[C@@H](C)C1=CC(=O)O2 | < 4.30 | Non-Toxic | – | –
C[C@H]1C2=CC(=O)O[C@@H]2C[C@H]2[C@H]1C[C@@H](O)[C@H]1[C@@](C)(CO)CCC[C@]21C | < 4.30 | Non-Toxic | – | –
CO[C@@]12C[C@H]3[C@@H](C[C@@H](O)[C@H]4C(C)(C)CCC[C@]34C)[C@@H](C)C1=CC(=O)O2 | 4.53 | Non-Toxic | – | –
CO[C@@]12C[C@H]3[C@@H](C[C@@H](O)[C@H]4[C@](C)(CO)CCC[C@]34C)[C@@H](C)C1=CC(=O)O2 | < 4.30 | Non-Toxic | – | –
CC(=O)O[C@@H]1C[C@H]2[C@@H](C)C3=CC(=O)OC3=C[C@@H]2[C@@]2(C)CCCC(C)(C)[C@H]12 | < 4.30 | Non-Toxic | – | –
CO[C@@]12C[C@H]3[C@@H](CC[C@H]4C(C)(C)CCC[C@]34C)[C@@H](C)C1=CC(=O)O2 | < 4.30 | Non-Toxic | – | –
C[C@H]1C2=CC(=O)O[C@@H]2C[C@H]2[C@H]1C[C@@H](O)[C@H]1C(C)(C)CCC[C@]21C | 4.39 | Non-Toxic | – | –

The remaining compounds from weak to strong by pIC50 [1], led by results:

pIC50 [1] | SMILES | Activity [2] | inhibition [3] | inhibition [4]
4.68 | C[C@@H]1[C@@H]2C[C@@H](O)[C@H]3[C@](C)(CO)CCC[C@]3(C)[C@H]2C=C2NC(=O)C[C@@H]21 | Non-Toxic | – | –
4.79 | C[C@H]1C2=CC(=O)N(CCO)[C@@H]2C[C@H]2[C@H]1C[C@@H](O)[C@H]1C(C)(C)CCC[C@]21C | Non-Toxic | – | –
4.95 | CC(=O)O[C@@H]1C[C@@H]2[C@H](C=C3NC(=O)C=C3[C@]2(C)O)[C@@]2(C)CCCC(C)(C)[C@H]12 | Non-Toxic | – | –
5.01 | CC(=O)O[C@@H]1C[C@@H]2[C@H](C=C3NC(=O)C=C3[C@@]2(C)O)[C@@]2(C)CCCC(C)(C)[C@H]12 | Non-Toxic | – | –
5.09 | C[C@H]1C2=CC(=O)NC2=C[C@H]2[C@H]1C[C@@H](O)[C@H]1C(C)(C)CCC[C@]21C | Non-Toxic | Dose-Dependent Effect | Dose-Dependent Effect
6.24 | C[C@@H]1C[C@H]2[C@@H]3CCC4=CC(=O)C=C[C@]4(C)[C@@]3(F)[C@@H](O)C[C@]2(C)[C@@]1(O)C(=O)CO [DEXAMETHASONE] | Non-Toxic | – | –

Source: ChEMBL document CHEMBL4831508, “Anti-inflammatory Cassane-Type Diterpenoids from the Seed Kernels of Caesalpinia sinensis” (J Nat Prod, 2021)
